Where “and” joins values, the source holds several entries; their conditions need not be identical. Equal entries are not always repeated.
Assays:
[1] = Time with concentration above MIC targets (T>MIC, %T>MIC) in plasma and spinal tissues, microdialysis porcine model; format: in vivo, pigs (Danish Landrace breed)
Excerpt: (§1) Eight female pigs (Danish Landrace breed, weight 78–82 kg) were included. In general anaesthesia, microdialysis catheters were placed in the third cervical (C3) vertebral cancellous bone, the C3-C4 intervertebral disc, paravertebral muscle, and adjacent subcutaneous tissue. Plasma samples were obtained as a reference. Abiding by the recommendations of replacement, reduction, and refinement (the 3 Rs) when conducting animal studies, the data sampled in extrathecal spinal tissues in the present study are derived from animals where lower extremity data were reported previously. […] The dose and mode of administration used were in accordance with the clinical practice at our institution. Sampling was conducted for 8 h.
(§2) (Figure 3). The microdialysis catheters used were CMA 70 (membrane length 10 and 20 mm, molecular mass cut of 20 kDa; M Dialysis AB, Stockholm, Sweden). Through an anterolateral approach, the C2, C3, and C4 vertebrae were exposed. Using a 2 mm drill, a 25 mm drill hole was made into the C3 vertebra in which a 20 mm microdialysis catheter was placed. Afterward, with aid from a splitable microdialysis introducer (M Dialysis AB, Stockholm, Sweden), a 10 mm microdialysis catheter was positioned in the C3-C4 intervertebral disc, and a 20 mm microdialysis catheter was positioned in both the exposed paravertebral muscle and adjacent subcutaneous tissue. Correct positioning of the microdialysis catheters in the vertebra and the intervertebral disc was verified by fluoroscopy. The catheters were connected to precision pumps (CMA 107; M Dialysis AB, Stockholm, Sweden) and perfused with 0.9% NaCl solution at a flow rate of 1 μL/min.
(§3) After catheter placement, microdialysis sampling was initiated with a tissue-equilibration period of 20 min prior to the antibiotic intravenous administration. […] Microdialysates were collected at 30 min intervals for the first 4 h, and at 60 min intervals for the last 4 h, resulting in a total of 12 samples during an 8-h dosing interval. At the midpoint of each sampling interval, blood samples were collected from a central venous catheter for reference. The blood samples were stored at 5 °C for a maximum of 6 h before being centrifuged (room temperature, 3000 g, 10 min), and plasma aliquots were made. […] The recovery sample was later used for individual catheter calibration and calculation of absolute tissue concentrations. All collected samples were stored at –80 °C until the chemical analyses were performed; microdialysate analyses were performed at the Department of Forensic Medicine, Aarhus University, Denmark, and plasma aliquot analyses were performed at the Department of Clinical Biochemistry, Aarhus University Hospital, Aarhus, Denmark.
(§4) The free drug concentration of meropenem in plasma was quantified using ultra-high performance liquid chromatography (UHPLC).
(§5) The area under the concentration–time curves from zero to the last measured value (AUC0-8h) was calculated using the trapezoidal rule. The Cmax was calculated as the maximum concentration of all the recorded concentrations, and the Tmax was calculated as the time to achieve Cmax. As a measure of tissue penetration, the ratio of tissue AUC to plasma AUC (AUCtissue/AUCplasma) was calculated. A general comparison of the T>MIC and the pharmacokinetic parameters was conducted using repeated measurements of the analysis of variance (ANOVA), followed by pairwise comparisons made by linear regression. Because of a small sample size, it was necessary to conduct a correction for the degrees of freedom by the Kenward–Roger approximation method. Using the visual diagnosis of residuals, fitted values and estimates of random-effects model assumptions were tested. A p-value of less than 0.05 was considered significant.

[2] = Plasma and spinal tissue pharmacokinetics by microdialysis after single-dose co-administered i.v. meropenem and vancomycin; conditions: free drug, single i.v. 1000 mg meropenem + 1000 mg vancomycin co-administered, mean (95%CI)
Excerpt: as §1, §2, §3, §4, §5

[3] = intervertebral disc, microdialysis, pigs, one disc catheter malfunctioned
[4] = paravertebral muscle, microdialysis, pigs n = 8
[5] = subcutaneous tissue, microdialysis, pigs n = 8
[6] = vertebral cancellous bone, microdialysis, pigs n = 8

With `C[C@@H](O)[C@H]1C(=O)N2C(C(=O)O)=C(S[C@@H]3CN[C@H](C(=O)N(C)C)C3)[C@H](C)[C@H]12` [Meropenem, meropenem] as the compound, how does the “Mean T>MIC (min)” value ([1]; meropenem MIC 0.125 μg/mL (low), C3-C4 intervertebral disc, microdialysis, UHPLC-MS/MS, pigs, one disc catheter malfunctioned, single i.v. 1000 mg co-administered with vancomycin, mean) read?
The value was 366 (335; 396) min.

And the “Mean T>MIC (min)” value ([1]; meropenem MIC 0.125 μg/mL (low), C3 vertebral cancellous bone, microdialysis, UHPLC-MS/MS, pigs n = 8, single i.v. 1000 mg co-administered with vancomycin, mean)?
Its value is 244 (215; 272) min.

And the “Mean %T>MIC” value ([1]; meropenem MIC 0.125 μg/mL (low), intervertebral disc, microdialysis, percentage of dosing interval of 450 min, pigs, single i.v. 1000 mg)?
Its value is 81 (74; 88) %.

And the “Mean T>MIC (min)” value ([1]; meropenem MIC 0.125 μg/mL (low), paravertebral muscle, microdialysis, UHPLC-MS/MS, pigs n = 8, single i.v. 1000 mg co-administered with vancomycin, mean)?
Its value is 285 (256; 314) min.

What about the “Mean %T>MIC” value ([1]; meropenem MIC 0.125 μg/mL (low), paravertebral muscle, microdialysis, percentage of dosing interval of 450 min, pigs n = 8, single i.v. 1000 mg) of the same compound?
The value was 63 (57; 70) %.

And the “Mean T>MIC” value ([1]; meropenem MIC 0.125 μg/mL (low), plasma, free drug, UHPLC, pigs n = 8, single i.v. 1000 mg over 10 min co-administered with vancomycin 1000 mg, linear interpolation, mean)?
Its value is 406 min.

And the “Mean %T>MIC” value ([1]; meropenem MIC 0.125 μg/mL (low), plasma, percentage of dosing interval of 450 min, pigs n = 8, single i.v. 1000 mg co-administered with vancomycin)?
The value was 90%.

What about the “Mean T>MIC (min)” value ([1]; meropenem MIC 0.125 μg/mL (low), subcutaneous tissue, microdialysis, UHPLC-MS/MS, pigs n = 8, single i.v. 1000 mg co-administered with vancomycin, mean) of the same compound?
Its value is 334 (305; 363) min.

What about the “Mean %T>MIC” value ([1]; meropenem MIC 0.125 μg/mL (low), subcutaneous tissue, microdialysis, percentage of dosing interval of 450 min, pigs n = 8, single i.v. 1000 mg) of the same compound?
The value was 74 (68; 81) %.

What about the “Mean %T>MIC” value ([1]; meropenem MIC 0.125 μg/mL (low), vertebral cancellous bone, microdialysis, percentage of dosing interval of 450 min, pigs n = 8, single i.v. 1000 mg) of the same compound?
The value was 54 (48; 61) %.

What about the “%T>MIC” value ([1]; meropenem low MIC target (0.125 µg/mL), all the investigated compartments, 8-h dosing interval, pigs, single i.v. 1000 mg) of the same compound?
Its value is ≥ 54%.

And the “%T>MIC” value ([1]; pig, in vivo)?
The value was 25–36%.

And the “Mean %T>MIC” value ([1]; pig, in vivo)?
The value was 36 (33; 40) %.

And the “Mean T>MIC (min)” value ([1]; pig, in vivo)?
Its value is 163 (147; 180) min.

And the “%T>MIC” value ([1]; pig, in vivo, iv)?
Its value is ≤ 40%.

What about the “Mean %T>MIC” value ([1]; pig, in vivo, iv) of the same compound?
The value was 40% and 26 (22; 30) % and 25 (22; 29) % and 35 (31; 39) %.

And the “Mean T>MIC” value ([1]; pig, in vivo, iv)?
Its value is 181 min.

What about the “Mean T>MIC (min)” value ([1]; pig, in vivo, iv) of the same compound?
Its value is 118 (101; 134) min and 114 (98; 131) min and 158 (141; 175) min.

And the “%T>MIC” value ([1]; pig, in vivo, iv, listed as meropenem)?
Its value is 25–90%.

What does the source list for `CN[C@H](CC(C)C)C(=O)N[C@H]1C(=O)N[C@@H](CC(N)=O)C(=O)N[C@H]2C(=O)N[C@H]3C(=O)N[C@H](C(=O)N[C@H](C(=O)O)c4cc(O)cc(O)c4-c4cc3ccc4O)[C@H](O)c3ccc(c(Cl)c3)Oc3cc2cc(c3O[C@@H]2O[C@H](CO)[C@@H](O)[C@H](O)[C@H]2O[C@H]2C[C@](C)(N)[C@H](O)[C@H](C)O2)Oc2ccc(cc2Cl)[C@H]1O` [Vancomycin, vancomycin]?
AUC0-8h [2, 3]: 877 (−325; 2079) min μg/mL; Cmax [2, 3]: 3 (−3; 10) μg/mL; AUC0-8h [2, 4]: 2538 (1379; 3698) min μg/mL; Cmax [2, 4]: 11 (5; 17) μg/mL; Cmax ([2]; plasma, pigs n = 8): 35 (29; 41) μg/mL; AUC0-8h [2, 5]: 3767 (2608; 4927) min μg/mL; Cmax [2, 5]: 17 (11; 23) μg/mL; AUC0-8h [2, 6]: 1698 (539; 2858) min μg/mL; Cmax [2, 6]: 6 (0.4; 12) μg/mL; Mean %T>MIC ([1]; vancomycin MIC 1 μg/mL (low), intervertebral disc, microdialysis, percentage of dosing interval of 450 min, pigs, single i.v. 1000 mg): 69%; Mean T>MIC ([1]; vancomycin MIC 1 μg/mL (low), intervertebral disc, microdialysis, pigs, one disc catheter malfunctioned, single i.v. 1000 mg co-administered with meropenem, mean): 311 min; Mean %T>MIC ([1]; vancomycin MIC 1 μg/mL (low), paravertebral muscle, microdialysis, percentage of dosing interval of 450 min, pigs n = 8, single i.v. 1000 mg): 96%; Mean T>MIC ([1]; vancomycin MIC 1 μg/mL (low), paravertebral muscle, microdialysis, pigs n = 8, single i.v. 1000 mg co-administered with meropenem, mean): 433 min; Mean T>MIC ([1]; vancomycin MIC 1 μg/mL (low), plasma, free drug, enzyme immunoassay, pigs n = 8, single i.v. 1000 mg over 100 min co-administered with meropenem 1000 mg, linear interpolation, mean): 449 min; Mean %T>MIC ([1]; vancomycin MIC 1 μg/mL (low), plasma, percentage of dosing interval of 450 min, pigs n = 8, single i.v. 1000 mg): 100%; Mean T>MIC ([1]; vancomycin MIC 1 μg/mL (low), subcutaneous tissue, microdialysis, UHPLC-MS/MS, pigs n = 8, single i.v. 1000 mg co-administered with meropenem, mean): 435 min; Mean %T>MIC ([1]; vancomycin MIC 1 μg/mL (low), subcutaneous tissue, microdialysis, percentage of dosing interval of 450 min, pigs n = 8, single i.v. 1000 mg): 97%; Mean %T>MIC ([1]; vancomycin MIC 1 μg/mL (low), vertebral cancellous bone, microdialysis, percentage of dosing interval of 450 min, pigs n = 8, single i.v. 1000 mg): 86%; Mean T>MIC ([1]; vancomycin MIC 1 μg/mL (low), vertebral cancellous bone, microdialysis, pigs n = 8, single i.v. 1000 mg co-administered with meropenem, mean): 388 min; Mean %T>MIC ([1]; vancomycin MIC 4 μg/mL (high), intervertebral disc, microdialysis, percentage of dosing interval of 450 min, pigs, single i.v. 1000 mg): 10%; Mean T>MIC ([1]; vancomycin MIC 4 μg/mL (high), intervertebral disc, microdialysis, pigs, one disc catheter malfunctioned, single i.v. 1000 mg co-administered with meropenem, mean): 45 min; Mean T>MIC ([1]; vancomycin MIC 4 μg/mL (high), paravertebral muscle, microdialysis, pigs n = 8, single i.v. 1000 mg co-administered with meropenem, mean): 306 min; Mean T>MIC ([1]; vancomycin MIC 4 μg/mL (high), plasma, free drug, pigs n = 8, single i.v. 1000 mg co-administered with meropenem, mean): 446 min; Mean %T>MIC ([1]; vancomycin MIC 4 μg/mL (high), plasma, percentage of dosing interval of 450 min, pigs n = 8, single i.v. 1000 mg): 99%; Mean %T>MIC ([1]; vancomycin MIC 4 μg/mL (high), subcutaneous tissue, microdialysis, percentage of dosing interval of 450 min, pigs n = 8, single i.v. 1000 mg): 81%; Mean T>MIC ([1]; vancomycin MIC 4 μg/mL (high), subcutaneous tissue, microdialysis, pigs n = 8, single i.v. 1000 mg co-administered with meropenem, mean): 365 min; Mean %T>MIC ([1]; vancomycin MIC 4 μg/mL (high), vertebral cancellous bone, microdialysis, percentage of dosing interval of 450 min, pigs n = 8, single i.v. 1000 mg): 47%; Mean T>MIC ([1]; vancomycin MIC 4 μg/mL (high), vertebral cancellous bone, microdialysis, pigs n = 8, single i.v. 1000 mg co-administered with meropenem, mean): 214 min; %T>MIC ([1]; vancomycin high MIC target (4 µg/mL), all solid tissue compartments, 8-h dosing interval, pigs, single i.v. 1000 mg): ≤ 81%; %T>MIC ([1]; vancomycin low MIC target (1 µg/mL), all the investigated compartments, 8-h dosing interval, pigs, single i.v. 1000 mg): ≥ 69%; %T>MIC ([1]; vancomycin, range across all targeted tissues and plasma and both MIC targets (1 and 4 µg/mL), pigs, single i.v. 1000 mg): 10–100%

From article PMC10215740 (Antibiotics, 2023)
